Converted amounts (≈) assume the structure as drawn. Where two headings read alike, the source gives them in different places.
What was measured:
Type in all cases: in vivo
[1] = peroral toxicity to mammals (rat LD50); details: rat, in vivo, po, rat
Method: (§1) Certain of these compositions were also evaluated to determine their peroral toxicity to mammals. The animal selected for this experiment was the rat. The test results obtained are expressed in terms of the number of milligrams of compositions per kilogram of weight of the animal required to achieve a mortality rate of 50 percent (LD50).
(§2) The results set forth in TABLE I clearly show the broad spectrum pesticidal activity of the compounds of this invention, as well as their reduced mammalian toxicity. It will be understood that the insect and mite species employed in the above tests are merely representative of a wide variety of pests that can be controlled through the use of the compounds of this invention. A series of comparative tests were conducted to evaluate the relative biological properties of the compounds of the invention and certain prior art compounds. The test procedures employed are identical to those discussed above. The results are reported in the parts per million of the compound required for a 50% kill (LD50).

[2] = system: house flies (Musca domestica, L.); test: Fly Bait Test; details: read-out: Housefly LD50
Method: (§3) Suspensions of the test compounds were prepared by dissolving one gram of compound in 50 milliliters of acetone in which had been dissolved 0.1 gram (10 percent of the weight of compound) of an alkylphenoxy polyethoxyethanol surfactant, as an emulsifying or dispersing agent. The resulting solution was mixed into 150 milliliters of water to give roughly 200 milliliters of a suspension containing the compound in finely divided form. The thusprepared stock suspension contained 0.5 percent by weight of compound. The test concentrations in parts per million by weight employed in the tests described hereinbelow were obtained by appropriate dilutions of the stock suspension with water. The test procedures were as follows:
Four to six day old adult house flies (Musca domestica, L.) reared according to the specifications of the Chemical Specialties Manufacturing Association (Blue Book, McNair-Dorland Co., N.Y. 1954; pages 243-244, 261) under controlled conditions of 80°±5° F. and 50±5 percent relative humidity, were the test insects. The flies were immobilized by anesthetizing with carbon dioxide and twenty five immobilized individuals, males and females, were transferred to a cage consisting of a standard food strainer about five inches in diameter which was inverted over a wrapping-paper-covered surface. The test compounds were formulated by diluting the stock suspension with a 10 percent (by weight) sugar solution to give a suspension containing 500 parts of test compound per million parts of final formulation, by weight. Ten milliliters of the test formulation were added to a souffle cup containing a one-inch square of an absorbent cotton pad. This bait cup was introduced and centered on the blotting paper under the food strainer prior to admitting the anesthetized flies. The caged flies were allowed to feed on the bait for 24 hours, at a temperature of 80°±5° F. and the relative humidity of 50±5 percent.
(§4) In these tests the pesticidal activity of the compounds against aphid, mite, Southern Armyworm, Bean Beetle and House Fly was rated as follows:
(§5) Dashes indicate no test conducted.
as §2

[3] = system: southern armyworm (Prodenia eridania, (Cram.)); test: Southern Armyworm Leaf Spray Test; details: Spodoptera eridania, read-out: Southern Armyworm LD50
Method: as §3
Southern Armyworm Leaf Spray Test
Larvae of the southern armyworm (Prodenia eridania, (Cram.)), reared on Tendergreen bean plants at a temperature of 80°±5° F. and a relative humidity of 50±5 percent, constituted the test insects.
The test compounds were formulated by diluting the stock suspension with water to given a suspension containing 500 parts of test compound per million parts of final formulation. Potted Tendergreen bean plants of standard height and age were placed on a revolving turntable and sprayed with 100-110 milliliters of test compound formulation by use of a DeVilbiss spray gun set at 10 psig air pressure. This application, which lasted 25 seconds, was sufficient to wet plants to run-off. As a control, 100-110 milliliters of a water-acetone-emulsifier solution containing no test compound were also sprayed on infested plants. When dry, the paired leaves were separated and each one was placed in a 9 centimeter Petri dish lined with moistened filter paper. Five randomly selected larvae were introduced into each dish and the dishes were closed. The closed dishes were labeled and held at 80°-85° F. for three days. Although the larvae could easily consume the whole leaf within 24 hours, no more food was added. Larvae which were unable to move the length of the body, even upon stimulation by prodding, were considered dead. Percent mortality was recorded for various concentration levels.
as §4, §5, §2

[4] = system: bean aphid (Aphis fabae Scop.); test: Bean Aphid Foliage Spray Test; details: foliar, read-out: Aphid LD50
Method: as §3
Bean Aphid Foliage Spray Test
Adults and nymphal stages of the bean aphid (Aphis fabae Scop.) reared on potted dwarf nasturtium plants at 65°-70° F. and 50-70 percent relative humidity, constituted the test insects. For testing purposes, the number of aphids per pot was standardized to 100-150 by trimming plants containing excess aphids.
The test compounds were formulated by diluting the stock suspension with water to give a suspension containing 500 parts of test compound per million parts of final formulation.
The potted plants (one pot per compound tested) infested with 100-150 aphids, were placed on a revolving turntable and sprayed with 100-110 milliliters of test compound formulation by use of a DeVilbiss spray gun set at 40 psig. air pressure. This application, which lasted 25 seconds, was sufficient to wet the plants to run-off. As a control, 100-110 milliliters of a water-acetone-emulsifier solution containing no test compound were also sprayed on infested plants. After spraying, the pots were placed on their sides on a sheet of white standard mimeograph paper which had been previously ruled to facilitate counting. Temperature and humidity in the test room during the 24 hour holding period were 65°-70° F. and 50-70 percent, respectively. Aphids which fell onto the paper and were unable to remain standing after being uprighted were considered dead. Aphis remaining on the plants were observed closely for movement and those which were unable to move the length of the body upon stimulation by prodding were considered dead. Percent mortality was recorded for various concentration levels.
as §4, §5, §2

[5] = system: Mexican bean beetle (Epilachna varivestis, Muls.); test: Mexican Bean Beetle Leaf Spray Test; details: read-out: Mexican Bean Beetle LD50
Method: as §3
Mexican Bean Beetle Leaf Spray Test
Fourth instar larvae of the Mexican bean beetle Epilachna varivestis, Muls.), reared on Tendergreen bean plants at a temperature of 80°±5° F. and 50±5 percent relative humidity, were the test insects.
The test compounds were formulated by diluting the stock suspension with water to give a suspension containing 500 parts of test compound per million parts of final formulation. Potted Tendergreen bean plants of standard height and age were placed on a revolving turntable and sprayed with 100-110 milliliters of test compound formulation by use of a DeVilbiss spray gun set at 10 psig air pressure. This application, which lasted 25 seconds, was sufficient to wet plants to run-off. As a control, 100-110 milliliters of a water-acetone-emulsifier solution containing no test compound were also sprayed on infested plants. When dry, the paired leaves were separated and each was placed in a 9 centimeter Petri dish lined with moistened filter paper. Five randomly selected larvae were introduced into each dish, and the dishes were closed. The closed dishes were labeled and held at a temperature of 80°±5° F. for three days. Although the larvae could easily consume the leaf within 24 to 48 hours, no more food was added. Larvae which were unable to move the length of the body, even upon stimulation, were considered dead.
as §4, §5, §2

rat = test: peroral toxicity to mammals (rat LD50); details: for times less toxic to mammals than compound 1: rat LD50 relative to compound 1; for times less toxic to mammals than compound 2: rat LD50 relative to compound 2
Method: as §1, §2

[6] = peroral, mortality rate of 50 percent, read-out: Rat LD50 (Table I)
[7] = comparative test, read-out: Rat LD50 (Table II)
[8] = concentration required for a 50% kill, comparative test

Row | Compound | LD50 [1, 6] [mg/kg] | LC50 [2] [µg/mL] | LC50 [3] [µg/mL] | LC50 [4] [µg/mL] | LC50 [5] [µg/mL] | LD50 [1, 7] [mg/kg] | times less toxic to mammals than compound 1 (rat) | times less toxic to mammals than compound 2 (rat) | times less toxic to mammals as compound 2 (first of the two statements for compound 4) (rat; rat LD50, printed relative to compound 2) | LC50 [2, 8] [µg/mL] | LC50 [3, 8] [µg/mL] | LC50 [4, 8] [µg/mL] | LC50 [5, 8] [µg/mL]
1 | CSc1ccc(OC(=O)N(C)SN(C)C(=O)Oc2cccc3c2OC(C)(C)C3)cc1C [[2,2-Dimethyl-2,3-dihydro-7-benzofuranylmethylcarbamate]N-[3-methyl-4-methylthiophenyl methylcarbamate]sulfide] | 18 | – | – | – | – | – | – | – | – | – | – | – | –
2 | CC(C)c1cccc(OC(=O)N(C)SN(C)C(=O)Oc2cccc3c2OC(C)(C)C3)c1 [Compound 3, [2,2-Dimethyl-2,3-dihydro-7-benzofuranyl methylcarbamate]N-[3-isopropylphenyl methylcarbamate]sulfide] | 80 | 22 (≈ 49.5 µM) | 20 (≈ 45 µM) | 1 (≈ 2.25 µM) | 3 (≈ 6.75 µM) | 80 | at least 16 times | at least 13 times | – | – | – | – | –
3 | CN(SN(C)C(=O)Oc1cccc2c1OC(C)(C)C2)C(=O)Oc1cccc2c1OC(C)(C)C2 [Compound 2, reference compound] | – | 30 (≈ 63.5 µM) | 13 (≈ 27.5 µM) | 1 (≈ 2.12 µM) | 2 (≈ 4.23 µM) | 6.3 | – | – | – | – | – | – | –
4 | CN(SN(C)C(=O)Oc1cccc2c1OC(C)(C)C2)C(=O)Oc1ccc(C(C)(C)C)cc1 [Compound 4, [2,2-Dimethyl-2,3-dihydro-7-benzofuranyl methylcarbamate]N-[4-t-butylphenylmethylcarbamate]sulfide] | 45 | 17 (≈ 37.1 µM) | 23 (≈ 50.2 µM) | 2 (≈ 4.36 µM) | 18 (≈ 39.3 µM) | 45 | – | seven | nine | – | – | – | –
5 | CN(SN(C)C(=O)Oc1cccc2c1OC(C)(C)C2)C(=O)Oc1ccc([N+](=O)[O-])cc1 [[2,2-Dimethyl-2,3-dihydro-7-benzofuranyl methylcarbamate]N-(4-nitrophenyl methylcarbamate]sulfide] | 25 | – | – | – | – | – | – | – | – | – | – | – | –
6 | CNC(=O)Oc1cccc2c1OC(C)(C)C2 [Compound 1, 2,3-dihydro-2,2-dimethyl-7-benzofuranyl methyl carbamate, reference compound] | – | – | – | – | – | 5 | – | – | – | 12 (≈ 54.2 µM) | 90 (≈ 407 µM) | 2 (≈ 9.04 µM) | 12 (≈ 54.2 µM)
7 | CN(SN(C)C(=O)Oc1cccc2c1OC(C)(C)C2)C(=O)Oc1ccc([N+](=O)[O-])cc1 [Compound 5] | – | 45 (≈ 101 µM) | 20 (≈ 44.7 µM) | 2 (≈ 4.47 µM) | 4 (≈ 8.94 µM) | 25.2 | five | four | – | – | – | – | –

Source: US4124721A, “Pesticidal unsymmetrical bis-arylcarbamate sulfide compounds containing a 2,3, dehyrobenzofuran group” (priority 1977, dated 1978)
